Source: PubChem BioAssay (NCI)
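Cultured in 96-well plates, cells were exposed to test compound for 48 hours across five concentrations. Definition used: TGI = concentration required for complete inhibition of growth.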

Tests used:
Assay in all cases: NCI tumour cell line growth inhibition, 48 h
COLO 205 colon = test system: COLO 205 colon
HS 578T breast = test system: HS 578T breast
LOX IMVI melanoma = test system: LOX IMVI melanoma
NCI/ADR-RES ovarian = test system: NCI/ADR-RES ovarian
OVCAR-8 ovarian = test system: OVCAR-8 ovarian
SK-MEL-2 melanoma = test system: SK-MEL-2 melanoma
SK-MEL-5 melanoma = test system: SK-MEL-5 melanoma
SNB-75 CNS = test system: SNB-75 CNS
TK-10 renal = test system: TK-10 renal
U251 CNS = test system: U251 CNS
UACC-62 melanoma = test system: UACC-62 melanoma

| Compound | TGI (COLO 205 colon) [µM] | TGI (HS 578T breast) [µM] | TGI (LOX IMVI melanoma) [µM] | TGI (NCI/ADR-RES ovarian) [µM] | TGI (OVCAR-8 ovarian) [µM] | TGI (SK-MEL-2 melanoma) [µM] | TGI (SK-MEL-5 melanoma) [µM] | TGI (SNB-75 CNS) [µM] | TGI (TK-10 renal) [µM] | TGI (U251 CNS) [µM] | TGI (UACC-62 melanoma) [µM] |
| --- | --- | --- | --- | --- | --- | --- | --- | --- | --- | --- | --- |
| O=C(NNC(=O)c1cc2ccccc2[nH]1)c1cc2ccccc2[nH]1 | > 100 | > 100 | > 100 | > 100 | > 100 | > 100 | > 100 | > 100 | > 100 | > 100 | > 100 |
| CC(=O)OCC1OC(NC(=S)Nn2c(-c3ccccc3)nc3ccccc3c2=O)C(OC(C)=O)C(OC(C)=O)C1OC(C)=O (stereo not given) | > 100 | > 100 | > 100 | > 100 | > 100 | 68.3 | > 100 | > 100 | – | > 100 | > 100 |
| CC(=O)OCC1OC(Sc2nc(-c3ccccc3)c(C#N)c(=O)n2C2OC(COC(C)=O)C(OC(C)=O)C(OC(C)=O)C2OC(C)=O)C(OC(C)=O)C(OC(C)=O)C1OC(C)=O (stereo not given) | > 100 | > 100 | > 100 | > 100 | > 100 | > 100 | > 100 | > 100 | > 100 | > 100 | > 100 |
| O=C(O)c1ccc2nc(-c3ccccn3)c(-c3ccccn3)nc2c1 | > 100 | > 100 | > 100 | > 100 | > 100 | > 100 | > 100 | > 100 | > 100 | > 100 | > 100 |
| CN1CN(c2ccccc2)C2(CCN(CCCN(C)c3ccc(F)cc3)CC2)C1=O | 24.1 | 42.8 | 31 | 51.3 | 45.2 | 33.5 | 29.8 | 40 | 44.9 | 33.3 | 36.5 |
| O=[N+]([O-])C1=Cc2c(O)ccc(O)c2C2c3ccccc3NC12 (stereo not given) | 33.9 | > 57 | > 52.7 | 51 | > 42.6 | 40.1 | 27.6 | > 61.3 | 30 | 29.4 | 22.7 |
| CCOC(=O)c1c2ccccc2n2c(=O)n(-c3ccccc3)nnc12 | > 100 | > 100 | > 100 | > 100 | > 100 | > 100 | 41.7 | 89.5 | > 100 | > 100 | > 100 |
| CN(C)CCCCN1c2ccccc2Sc2ccc(N=[N+]=[N-])cc21 | 3.13 | 18.4 | 5.77 | 23.3 | 22.1 | 9.66 | 3.04 | 10 | 24.7 | 11.9 | 3.77 |
| Cc1ccc(Nc2nc3ccccc3nc2NS(=O)(=O)c2ccc(N)cc2)cc1 | > 100 | > 100 | > 100 | > 100 | > 100 | 81.9 | > 100 | > 100 | > 100 | > 100 | > 100 |
| COc1cc(Nc2nc(NS(=O)(=O)c3cc(C)c(Cl)cc3S)n[nH]2)cc(OC)c1OC | > 100 | > 100 | > 100 | > 100 | > 100 | > 100 | > 100 | > 100 | > 100 | > 100 | > 100 |
| O=c1[nH]c2ccccc2c(=O)c2cc3ccccc3cc12 | > 100 | 70.9 | > 100 | > 100 | 37.7 | > 100 | > 100 | 19.4 | 37 | 21.4 | > 100 |
| COc1ccc(CC(COS(=O)(=O)c2ccc(C)cc2)NS(=O)(=O)c2ccc(C)cc2)cc1 (stereo not given) | 34.3 | 58.8 | > 100 | > 52.7 | > 100 | 44.7 | 24.6 | 28.4 | 43.6 | 26.2 | 43.8 |
| C/C(=N\NC(N)=O)C(CN1CCOCC1)C(c1ccccc1)c1c(O)c2ccccc2oc1=O (stereo not given) | > 100 | > 100 | > 100 | > 100 | > 100 | > 100 | > 100 | > 100 | > 100 | > 100 | > 100 |
| CCOC(=O)c1sc(N)nc1N1CCCC1 | > 100 | > 100 | > 100 | > 100 | > 100 | > 100 | > 100 | > 100 | > 100 | > 100 | > 100 |
| C[N+](C)(C)CC(=O)N/N=C\c1c(O)ccc2ccccc12 | > 100 | 56.5 | > 100 | > 100 | > 100 | > 100 | 39.3 | 71.1 | > 100 | > 100 | > 100 |
| O=c1oc2cc(O)ccc2c(O)c1C(c1ccc(/C=C/c2ccccc2)cc1)c1c(O)c2ccc(O)cc2oc1=O | > 100 | > 100 | > 100 | > 100 | > 100 | > 100 | 95 | > 100 | > 100 | > 100 | > 100 |
| COc1cccc(O)c1-c1cc(=O)c2c(O)c(OC)c(OC)c(OC)c2o1 | 39.1 | > 100 | > 100 | 71.7 | > 100 | 52.4 | 39.4 | 76.1 | > 100 | > 100 | 32.8 |
| C=C1C(=O)O[C@H]2[C@@H]3O[C@@](C)(CC/C=C(\C)CCC[C@@H]2C)[C@H](O)C[C@@H]13 | 8.86 | 25.9 | 16.2 | 7.62 | 17.1 | 27 | 6.36 | 30.7 | 17.4 | > 100 | 20.9 |
| CCOC(=O)c1nc2ccccc2nc1Oc1ccc(F)cc1 | > 100 | > 100 | > 100 | > 100 | > 100 | > 100 | > 100 | > 100 | > 100 | > 100 | > 100 |

| Compound | TGI (COLO 205 colon) [µM] | TGI (HS 578T breast) [µM] | TGI (LOX IMVI melanoma) [µM] | TGI (NCI/ADR-RES ovarian) [µM] | TGI (OVCAR-8 ovarian) [µM] | TGI (SK-MEL-2 melanoma) [µM] | TGI (SK-MEL-5 melanoma) [µM] | TGI (SNB-75 CNS) [µM] | TGI (TK-10 renal) [µM] | TGI (U251 CNS) [µM] | TGI (UACC-62 melanoma) [µM] |
| --- | --- | --- | --- | --- | --- | --- | --- | --- | --- | --- | --- |
| COc1ccc(Cc2nc3cc(C(F)(F)F)ccc3n2C[C@@H]2CCCN3CCCCC23)cc1 (stereo not given in full) | 18.9 | 65.9 | 24.9 | 30.7 | 30.3 | 30.1 | 20.3 | 77.4 | 24.2 | 27.7 | 11.5 |
| CC(C)CCNC(=O)c1ccc(CNC(=O)/C=C/c2ccc3c(c2)-c2ccccc2C3)cc1 | > 100 | > 100 | > 100 | > 100 | 71.4 | > 100 | > 100 | 53.3 | > 100 | 65.2 | > 100 |
| COc1cc(CCNC2=CC(=O)c3ncccc3C2=O)ccc1O | 32.6 | 15.6 | 6.08 | > 23.3 | 14.3 | 9.79 | 1.84 | 4.73 | 70.8 | 19.6 | 3.8 |
| CC(C)=CCN1c2ccccc2[C@@]2(CC=C(C)C)CCN(C)[C@@H]12 | 26.8 | 45.8 | 34 | 53.5 | 90.2 | 33.3 | 33.2 | > 100 | > 100 | 40.5 | 34.8 |
| C[C@@H](NC(=O)Nc1cccc(C(=O)Nc2cc(C(C)(C)C)ccc2C(=O)O)n1)c1ccccc1 | 60.6 | > 100 | 36.7 | > 100 | > 100 | 39 | > 100 | > 100 | – | 37.8 | 50.9 |
| Nc1nc(NCc2ccccc2)cc(NCc2ccccc2)n1 | 27.3 | 13.4 | 45 | 15.3 | 17.3 | 31.2 | 19.7 | 13.1 | 22.3 | 71.2 | 16.5 |
| CCOP(=O)(OCC)/C(F)=C/c1ccc(F)cc1 | > 100 | > 100 | > 100 | > 100 | > 100 | > 100 | > 100 | > 100 | > 100 | > 100 | > 100 |
| CCOC(=O)n1c(=O)nc2c3c(ncn21)Oc1c(c(-c2ccccc2)nn1-c1ccccc1)C3c1ccc(Cl)cc1 (stereo not given) | 2.59 | 3.37 | 2.78 | 3.11 | 3.06 | 3.23 | 3.07 | 4.75 | 3.07 | 3.06 | 3.1 |
| COC(=O)c1c(O)ccc2c1c1c(n2CCc2ccccc2)C(=O)c2ccccc2C1 | 32.5 | > 100 | > 100 | 53.1 | > 100 | 40.5 | 43 | 54.1 | > 100 | 80.3 | 37.2 |
| NC(C(=O)O)C(O)c1cnc[nH]1 (stereo not given) | > 100 | > 100 | > 100 | > 100 | > 100 | > 100 | > 100 | > 100 | > 100 | > 100 | > 100 |
| O=C1C(CN2CCCC2)CCC1CN1CCCC1 (stereo not given) | 17.5 | 55.7 | > 51.9 | 56.8 | 37.5 | 47.1 | 31.9 | 33.4 | 32.6 | > 100 | 32.9 |
| C(#C[C@@]12CCC[C@@H]1NCO2)c1ccc2c(c1)OCO2 | 31.5 | > 100 | > 100 | > 100 | > 100 | > 100 | > 100 | > 100 | > 100 | > 100 | > 100 |
| CCOC(=O)c1cn2c(n1)sc1cc([N+](=O)[O-])ccc12 | > 100 | > 100 | > 100 | > 100 | > 100 | > 100 | > 100 | > 100 | > 100 | > 100 | > 100 |
| COC1=C(OC)C(=O)c2cc(C)c(=O)c(C)cc2C1=O | 34.7 | 63.8 | > 39 | 39.4 | 35.7 | 36.8 | 29.3 | 33 | 34 | 31 | 27.7 |
| COc1ccccc1Nc1nc(N)nc(N)c1N | > 100 | > 100 | 41.7 | > 100 | > 100 | > 100 | > 100 | > 100 | > 100 | > 100 | > 100 |
| CC(=O)OC1=C(c2ccccc2)S(=O)(=O)c2ccccc21 | > 100 | > 100 | > 100 | > 100 | > 100 | > 100 | > 100 | > 100 | > 100 | > 100 | > 100 |
| Cn1c2ccccc2n2c3ccccc3c3nnc(N)c-3c12 | > 100 | 10.8 | > 100 | > 100 | > 100 | > 79.5 | > 100 | 11.8 | > 100 | 11.7 | > 100 |
| C[C@H]1CC(=O)C[C@@H]2CC[C@@H]3[C@H](CC[C@]4(C)C(OC(=O)c5cccc6c(=O)c7ccccc7[nH]c56)CC[C@@H]34)[C@]21C (stereo not given in full) | 62.9 | > 100 | > 100 | 61 | 75.9 | > 100 | 40.3 | 92.8 | > 100 | > 100 | 88.3 |
